# From patent US9284333B2, “Fused pyrroledicarboxamides and their use as pharmaceuticals” (SANOFI, priority 2012, dated 2016)
# pIC50: −log10 of the molar value.
# Biological target: Human TASK-1 channels (Homo sapiens (Human), UniProt O14649)
# Assay: Determination of the activity on the TASK-1 channel in Xenopus oocytes (two-microelectrode voltage clamp)
# Format: cell-based
# Settings: compound concentration 5 μM
# In short: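 Xenopus oocytes were injected with human TASK-1 cRNA and recorded two days later by two-microelectrode voltage clamp, holding at −90 mV with 500 ms steps to 40 mV. Superfusion used ND96, pH 7.4, at room temperature, with rising compound concentrations; percentage inhibition of control current was fitted to a dose-response curve for IC50.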
# Human TASK-1 channels, sequence (O14649 whole entry): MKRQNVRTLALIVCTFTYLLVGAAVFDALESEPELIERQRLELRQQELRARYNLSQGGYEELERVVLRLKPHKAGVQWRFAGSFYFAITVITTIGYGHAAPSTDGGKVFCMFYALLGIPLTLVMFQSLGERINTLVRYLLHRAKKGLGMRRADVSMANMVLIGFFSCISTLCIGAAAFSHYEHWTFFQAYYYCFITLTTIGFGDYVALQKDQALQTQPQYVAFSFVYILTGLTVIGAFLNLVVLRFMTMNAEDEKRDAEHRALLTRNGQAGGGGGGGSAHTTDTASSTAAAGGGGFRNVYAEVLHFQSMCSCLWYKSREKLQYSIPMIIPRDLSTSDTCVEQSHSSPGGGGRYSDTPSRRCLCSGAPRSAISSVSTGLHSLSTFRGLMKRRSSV
row,Structure (SMILES),inhibition at 5 µM [%]
1,"C#CC1CCCN1C(=O)c1cc(C(=O)N[C@H](CC)c2ccccc2)c2n1CCOC2 (stereo partly drawn) [16fx, 6-(2-Ethynyl-pyrrolidine-1-carbonyl)-3,4-dihydro-1H-pyrrolo[2,1-c][1,4]oxazine-8-carboxylic acid ((R)-1-phenyl-propyl)-amide]",90
2,"CC[C@@H](NC(=O)c1cc(C(=O)N2CCC2C)n2c1COCC2)c1ccc(C(F)(F)F)nc1 (stereo partly drawn) [16pe, 6-(2-Methyl-azetidine-1-carbonyl)-3,4-dihydro-1H-pyrrolo[2,1-c][1,4]oxazine-8-carboxylic acid [(R)-1-(6-trifluoromethyl-pyridin-3-yl)-propyl]-amide]",69
3,"CC[C@@H](NC(=O)c1cc(C(=O)NCc2ccc(OC)nc2)n2c1COCC2)c1ccccc1 [16jg, 3,4-Dihydro-1H-pyrrolo[2,1-c][1,4]oxazine-6,8-dicarboxylic acid 6-[(6-methoxy-pyridin-3-ylmethyl)-amide] 8-[((R)-1-phenyl-propyl)-amide]]",80
4,"CC[C@@H](NC(=O)c1cc(C(=O)NCc2cccnn2)n2c1COCC2)c1ccccc1 [16jf, 3,4-Dihydro-1H-pyrrolo[2,1-c][1,4]oxazine-6,8-dicarboxylic acid 8-[((R)-1-phenyl-propyl)-amide] 6-[(pyridazin-3-ylmethyl)-amide]]",36

# Same assay, conditions: human TASK-1 expressed in Xenopus oocytes, room temperature; read-out: IC50 value for TASK-1 inhibition
row,Structure (SMILES),pIC50
1,"CC[C@@H](NC(=O)c1cc(C(=O)N[C@H](CC)c2ncccc2OC)n2c1COCC2)c1ccccc1 [16ia, 3,4-Dihydro-1H-pyrrolo[2,1-c][1,4]oxazine-6,8-dicarboxylic acid 6-{[(R)-1-(3-methoxy-pyridin-2-yl)-propyl]-amide} 8-[((R)-1-phenyl-propyl)-amide]]",6.92
2,"CCC(NC(=O)c1cc(C(=O)N2CCC[C@@H]2C)n2c1COCC2)c1nccs1 (stereo partly drawn) [16ae, 6-((S)-2-Methyl-pyrrolidine-1-carbonyl)-3,4-dihydro-1H-pyrroIo[2,1-c][1,4]oxazine-8-carboxylic acid (1-thiazol-2-yl-propyl)-amide]",6.17
3,"O=C(NC(c1ccc(F)cc1)C(F)(F)F)c1cc(C(=O)N2CCCC2)n2c1COCC2 (stereo not shown) [16df, 6-(Pyrrolidine-1-carbonyl)-3,4-dihydro-1H-pyrrolo[2,1-c][1,4]oxazine-8-carboxylic acid [2,2,2-trifluoro-1-(4-fluoro-phenyl)-ethyl]-amide]",5.72
4,"CC[C@@H](NC(=O)c1cc(C(=O)N2CC[C@H](OCC3CC3)C2)n2c1COCC2)c1ccccc1 [16ev, 6-((S)-3-Cyclopropylmethoxy-pyrrolidine-1-carbonyl)-3,4-dihydro-1H-pyrrolo[2,1-c][1,4]oxazine-8-carboxylic acid ((R)-1-phenyl-propyl)-amide]",6.48
5,"CC[C@@H](NC(=O)c1cc(C(=O)NCCC2CC2)n2c1COCC2)c1ccccc1 [16gk, 3,4-Dihydro-1H-pyrrolo[2,1-c][1,4]oxazine-6,8-dicarboxylic acid 6-[(2-cyclopropyl-ethyl)-amide] 8-[((R)-1-phenyl-propyl)-amide]]",7.44
6,"CC[C@@H](NC(=O)c1cc(C(=O)NC(C)c2cnccn2)n2c1COCC2)c1ccccc1 (single isomer, unassigned) [16ie]",6.59
7,"CC[C@@H](NC(=O)c1cc(C(=O)N[C@H](CC)c2cncc(C(F)(F)F)c2)n2c1COCC2)c1ccccc1 [16hn, 3,4-Dihydro-1H-pyrrolo[2,1-c][1,4]oxazine-6,8-dicarboxylic acid 8-[((R)-1-phenyl-propyl)-amide] 6-{[(R)-1-(5-trifluoromethyl-pyridin-3-yl)-propyl]-amide}]",6.16
8,"CCC(NC(=O)c1cc(C(=O)N2CCCC2)n2c1COCC2)c1ccccc1OC(F)F (stereo not shown) [16cz, 6-(Pyrrolidine-1-carbonyl)-3,4-dihydro-1H-pyrrolo[2,1-c][1,4]oxazine-8-carboxylic acid [1-(2-difluoromethoxy-phenyl)-propyl]-amide]",6.51
9,"CC[C@@H](NC(=O)c1cc(C(=O)N2CCC[C@@H]2C)n2c1CSCC2)c1ccccc1 [16kz, 6-((S)-2-Methyl-pyrrolidine-1-carbonyl)-3,4-hihydro-1H-pyrrolo[2,1-c][1,4]thiazine-8-carboxylic acid ((R)-1-phenyl-propyl)-amide]",6.57
10,"CCC(NC(=O)c1cc(C(=O)N[C@H](CC)c2ccccc2)c2n1CCOC2)c1nccs1 (stereo partly drawn) [16ij, 3,4-Dihydro-1H-pyrrolo[2,1-c][1,4]oxazine-6,8-dicarboxylic acid 8-[((R)-1-phenyl-propyl)-amide] 6-[(1-thiazol-2-yl-propyl)-amide]]",6.77
11,"COC(=O)[C@H]1CCCN1C(=O)c1cc(C(=O)N[C@@H](c2ccc(F)cc2)C(C)C)n2c1COCC2 [16ln, (R)-1-{6-[(R)-1-(4-Fluoro-phenyl)-2-methyl-propylcarbamoyl]-3,4-dihydro-1H-pyrrolo[2,1-c][1,4]oxazine-8-carbonyl}-pyrrolidine-2-carboxylic acid methyl ester]",6.85
12,"CC[C@@H](NC(=O)c1cc(C(=O)N[C@H](CC)c2cccc(O)n2)n2c1COCC2)c1ccccc1 [16rh, 3,4-Dihydro-1H-pyrrolo[2,1-c][1,4]oxazine-6,8-dicarboxylic acid 6-{[(R)-1-(6-hydroxy-pyridin-2-yl)-propyl]-amide} 8-[((R)-1-phenyl-propyl)-amide]]",6.62
13,"CC[C@@H](NC(=O)c1cc(C(=O)N[C@H](C)c2ccc(F)cc2)n2c1SCC2)c1ccccc1 [16kt, 2,3-Dihydro-pyrrolo[2,1-b]thiazole-5,7-dicarboxylic acid 5-{[(R)-1-(4-fluoro-phenyl)-ethyl]-amide} 7-[((R)-1-phenyl-propyl)-amide]]",7.57
14,"CC[C@@H](NC(=O)c1cc(C(=O)N2CCC[C@@H]2C)n2c1COCC2)c1ccnc(C(F)(F)F)c1F [16bu, 6-((S)-2-Methyl-pyrrolidine-1-carbonyl)-3,4-dihydro-1H-pyrrolo[2,1-c][1,4]oxazine-8-carboxylic acid [(R)-1-(3-fluoro-2-trifluoromethyl-pyridin-4-yl)-propyl]-amide]",6.68
15,"CC[C@@H](NC(=O)c1cc(C(=O)N2CCC[C@@H]2C)n2c1COCC2)c1ccccn1 [16ph, 6-((S)-2-Methyl-pyrrolidine-1-carbonyl)-3,4-dihydro-1H-pyrrolo[2,1-c][1,4]oxazine-8-carboxylic acid ((R)-1-pyridin-2-yl-propyl)-amide]",6.19
16,"CC[C@@H](NC(=O)c1cc(C(=O)N2CCOC[C@@H]2C)c2n1CCOC2)c1ccccc1 [16kh, 8-((S)-3-Methyl-morpholine-4-carbonyl)-3,4-dihydro-1H-pyrrolo[2,1-c][1,4]oxazine-6-carboxylic acid ((R)-1-phenyl-propyl)-amide]",6.00
17,"CC[C@@H](NC(=O)c1cc(C(=O)N[C@H](CC)c2cnccn2)n2c1COCC2)c1ccccc1 [16hw, 3,4-Dihydro-1H-pyrrolo[2,1-c][1,4]oxazine-6,8-dicarboxylic acid 8-[((R)-1-phenyl-propyl)-amide] 6-[((R)-1-pyrazin-2-yl-propyl)-amide]]",6.44
18,"CC[C@@H](NC(=O)c1cc(C(=O)N2CCCCC2)n2c1CCCC2)c1ccccc1 [16mi, 3-(Piperidine-1-carbonyl)-5,6,7,8-tetrahydro-indolizine-1-carboxylic acid ((R)-1-phenyl-propyl)-amide]",6.23
19,"CC[C@@H](NC(=O)c1cc(C(=O)N2CCC[C@@H]2C)n2c1COCC2)c1ccc(C#N)cc1 [16ak, 6-((S)-2-Methyl-pyrrolidine-1-carbonyl)-3,4-dihydro-1H-pyrrolo[2,1-c][1,4]oxazine-8-carboxylic acid [(R)-1-(4-cyano-phenyl)-propyl]-amide]",5.89
20,CC[C@H](NC(=O)c1cc(C(=O)N[C@@H](CC)c2ncccn2)c2n1CCOC2)c1ccccc1 [16kc],5.74
21,"CC[C@@H](NC(=O)c1cc(C(=O)NCc2ncco2)c2n1CCOC2)c1ccccc1 [16jn, 3,4-Dihydro-1H-pyrrolo[2,1-c][1,4]oxazine-6,8-dicarboxylic acid 8-[(oxazol-2-ylmethyl)-amide] 6-[((R)-1-phenyl-propyl)-amide]]",6.00
22,"CC[C@@H](NC(=O)c1cc(C(=O)NCc2ncccn2)n2c1COCC2)c1ccccc1 [16hj, 3,4-Dihydro-1H-pyrrolo[2,1-c][1,4]oxazine-6,8-dicarboxylic acid 8-[((R)-1-phenyl-propyl)-amide] 6-[(pyrimidin-2-ylmethyl)-amide]]",6.28
23,"CCC[C@@H](NC(=O)c1cc(C(=O)N2CCC[C@@H]2C)n2c1COCC2)c1ccc(C(F)(F)F)nc1 [16bi, 6-((S)-2-Methyl-pyrrolidine-1-carbonyl)-3,4-dihydro-1H-pyrrolo[2,1-c][1,4]oxazine-8-carboxylic acid [(R)-1-(6-trifluoromethyl-pyridin-3-yl)-butyl]-amide]",6.82
24,"CC[C@@H](NC(=O)c1cc(C(=O)NC(C)c2ncccn2)n2c1COCC2)c1ccc(F)cc1Cl (stereo partly drawn) [16np, 3,4-Dihydro-1H-pyrrolo[2,1-c][1,4]oxazine-6,8-dicarboxylic acid 8-{[(R)-1-(2-chloro-4-fluoro-phenyl)-propyl]-amide} 6-[(1-pyrimidin-2-yl-ethyl)-amide]]",6.77
25,"CC[C@H](NC(=O)c1cc(C(=O)N[C@H](CC)c2ncccn2)c2n1CCOC2)c1ccccc1 [16kb, 3,4-Dihydro-1H-pyrrolo[2,1-c][1,4]oxazine-6,8-dicarboxylic acid 6-[((S)-1-phenyl-propyl)-amide] 8-[((R)-1-pyrimidin-2-yl-propyl)-amide]]",6.21
26,"CC[C@@H](NC(=O)c1cc(C(=O)N2CCCC2)n2c1COCC2)c1ccccc1 [16cx, 6-(Pyrrolidine-1-carbonyl)-3,4-dihydro-1H-pyrrolo[2,1-c][1,4]oxazine-8-carboxylic acid ((R)-1-phenyl-propyl)-amide]",7.13
27,"CC[C@@H](NC(=O)c1cc(C(=O)NC2CCCc3nccnc32)n2c1COCC2)c1ccccc1 (stereo partly drawn) [16io, 3,4-Dihydro-1H-pyrrolo[2,1-c][1,4]oxazine-6,8-dicarboxylic acid 8-[((R)-1-phenyl-propyl)-amide] 6-[(5,6,7,8-tetrahydro-quinoxalin-5-yl)-amide]]",6.03
